Experimental data: BigSolDB 2.1

CC(=O)OC(OC(C)=O)c1ccc([N+](=O)[O-])o1
solubility (mole fraction)
Details	in 1,4-dioxane	in DMF	in THF	in acetone	in acetonitrile	in ethyl acetate	in methanol	in n-hexane	in n-propanol	in toluene
278.15 K	0.0821	0.161	0.121	0.0864	0.0016	0.002	0.0778	0.0285	0.0435	0.141
283.15 K	0.0954	0.174	0.146	0.108	0.002	0.0031	0.0834	0.0358	0.0474	0.154
288.15 K	0.109	0.192	0.181	0.127	0.0028	0.0048	0.0898	0.0458	0.0513	0.171
293.15 K	0.131	0.209	0.217	0.156	0.0038	0.0068	0.0995	0.0562	0.0571	0.192
298.15 K	0.146	0.227	0.256	0.182	0.0052	0.0101	0.108	0.0721	0.0625	0.211
303.15 K	0.166	0.248	0.298	0.214	0.0069	0.0143	0.118	0.0883	0.0687	0.239
308.15 K	0.188	0.271	0.341	0.249	0.0093	0.02	0.129	0.109	0.0761	0.267
313.15 K	0.214	0.296	0.385	0.291	0.0126	0.0283	0.143	0.133	0.0843	0.293
318.15 K	0.237	0.319	0.434	0.33	0.0167	0.0405	0.155	0.162	0.0924	0.33
323.15 K	0.267	0.351	0.488	0.379	0.0215	0.0548	0.173	0.196	0.104	0.373
